Key:
VRE12201 = assay: MIC, microdilution broth method; assay type: cell-based, Enterococcus faecalis; conditions: VRE12201; in µg/mL
KP13368 = assay: MIC, microdilution broth method; assay type: cell-based; conditions: KP13368; Normal (no PMBN); in µg/mL
MSSA9144 = assay: MIC, microdilution broth method; assay type: cell-based, Staphylococcus aureus; conditions: MSSA9144; in µg/mL
VSE775 = assay: MIC, microdilution broth method; assay type: cell-based, Enterococcus faecalis; conditions: VSE775; in µg/mL
M6 = assay: MIC, microdilution broth method; assay type: cell-based; conditions: M6; Normal (no PMBN); in µg/mL
EMRSA 15 strain = assay: Reserpine (growth) assay for efflux; assay type: cell-based, Staphylococcus aureus; conditions: multidrug-resistant EMRSA 15 strain; compound 0.25×MIC, reserpine 10 μg/mL
MSSA 9144 strain = assay: Reserpine (growth) assay for efflux; assay type: cell-based, Staphylococcus aureus; conditions: multidrug-resistant MSSA 9144 strain; compound 0.25×MIC, reserpine 10 μg/mL
Ab17978 = assay: MIC, microdilution broth method; assay type: cell-based; conditions: Ab17978; Normal (no PMBN); in µg/mL
PA01 = assay: MIC, microdilution broth method; assay type: cell-based, Pseudomonas aeruginosa; conditions: PA01; Normal (no PMBN); in µg/mL
VRE12204 = assay: MIC, microdilution broth method; assay type: cell-based, Enterococcus faecium; conditions: VRE12204; in µg/mL
12156 = assay: MIC, A. baumannii extended panel; assay type: cell-based; conditions: A. baumannii 12156
UKA1 = assay: MIC, A. baumannii extended panel; assay type: cell-based
OXA23.1 = assay: MIC, A. baumannii extended panel; assay type: cell-based; conditions: A. baumannii OXA23.1
UKA12 = assay: MIC, A. baumannii extended panel; assay type: cell-based
UKA7 = assay: MIC, A. baumannii extended panel; assay type: cell-based
A601 = assay: MIC, A. baumannii extended panel; assay type: cell-based
W1 = assay: MIC, A. baumannii extended panel; assay type: cell-based
UKA13 = assay: MIC, A. baumannii extended panel; assay type: cell-based
UKA16 = assay: MIC, A. baumannii extended panel; assay type: cell-based
13302 = assay: MIC, A. baumannii extended panel; assay type: cell-based; conditions: A. baumannii 13302

CCn1cc(C(=O)O)c(=O)c2cc(F)c(N3CCNCC3)cc21 [Norfloxacin, norfloxacin, reference compound]
MIC (VRE12201): 4 | MIC (KP13368): 4 | MIC (MSSA9144): 2 | MIC (VSE775): 8 | MIC (M6): 0.25 | efflux by the strain (reserpine assay) (EMRSA 15 strain): effluxed | efflux by the strain (reserpine assay) (MSSA 9144 strain): effluxed | MIC (Ab17978): 4 | MIC (PA01): 2 | MIC (VRE12204): 4

Cl.O=C(O)c1cn(C2CC2)c2cc(N3CCN(Cc4ccc(CO)cc4)CC3)c(F)cc2c1=O [ML-77-158]
MIC 12156: 0.5 µg/mL | MIC (UKA1): 16 µg/mL | MIC (OXA23.1): 64 µg/mL | MIC (UKA12): 32 µg/mL | MIC (UKA7): 64 µg/mL | MIC (A601): 8 µg/mL | MIC (W1): 32 µg/mL | MIC (UKA13): 32 µg/mL | MIC (UKA16): 32 µg/mL | MIC 13302: 64 µg/mL
